Measured values: patent US12059408B2, “Treatment of cognitive impairment associated with schizophrenia” (Boehringer Ingelheim International GmbH, priority 2020, dated 2024)

Legend:
[1] = tested on: patients with mild to moderate dementia due to AD; experiment: AD trial: safety (AEs, laboratory tests); type: in vivo, human; details: 25 mg treatment group
Protocol: This was a 12-week, multi-centre, multi-national, randomised, double-blind, double-dummy, placebo-controlled, parallel-group trial in patients with mild to moderate dementia due to AD.
(§1) The TS included all patients who were randomised and were treated with ≥1 dose of trial medication. Patients in the TS were analysed according to the actual trial medication they received at randomisation. The TS was used for analyses of safety, demographics, and baseline characteristics.
Safety assessments included the frequency of AEs, recording of vital signs, ECG measurements, standard laboratory tests, physical examination, and C-SSRS questionnaires.

[2] = tested on: patients with schizophrenia; experiment: Phase II CIAS trial: cognition by MCCB, compound I add-on to antipsychotics vs placebo; type: in vivo, human; design: Change from baseline in MCCB overall composite score at Week 12, adjusted mean / Change from baseline in MCCB overall composite score at Week 12, comparison vs. placebo, adjusted mean: scale not given here; details: for Change from baseline in MCCB overall composite score at Week 12, adjusted mean: 12 weeks; for Change from baseline in MCCB overall composite score at Week 12, adjusted mean / Change from baseline in MCCB overall composite score at Week 12, comparison vs. placebo, adjusted mean: MMRM; for Change from baseline in MCCB overall composite score at Week 12, adjusted mean / Change from baseline in MCCB overall composite score at Week 12, comparison vs. placebo, adjusted mean / Proportion of responders, change from baseline in MCCB overall composite score at Week 12 / Responders, comparison vs. placebo, odds ratio: FAS; for Responders, comparison vs. placebo, odds ratio: logistic regression
Excerpt: This trial was designed to investigate whether compound I as an add-on therapy to antipsychotics (except clozapine) can improve cognitive symptoms in patients with schizophrenia.
The primary endpoint was cognition assessed using the Measurement and Treatment Research to Improve Cognition in Schizophrenia (MATRICS) consensus cognitive battery (MCCB).
• 1) Men or women who are 18-50 years (inclusive) of age at time of consent with established schizophrenia (as per DSM-5) with the following clinical features: • Outpatient, with no hospitalization for worsening of schizophrenia within 3 months (hospitalization for social management and/or day hospital programs within this time are acceptable) prior to randomization • Medically stable over the prior 4 weeks and psychiatrically stable without symptom exacerbation within 3 months prior to randomization • patients who have no more than a “moderate severe” rating on the Positive and Negative Symptom Scale (PANSS) positive items P1, P3-P7 (item score≤5) and no more than a “moderate” rating on the PANSS positive item P2 (item score≤4) • 2) Current antipsychotic and concomitant psychotropic medications as assessed at Visit 1 must meet the criteria below: • a. patients may have up to 2 antipsychotics (typical and/or atypical) • b. patients must be maintained on current typical and/or atypical antipsychotics other than Clozapine and on current dose for at least 4 weeks prior to randomization and/or maintained on current long acting injectable antipsychotics and current dose for at least 3 months prior to randomization • c. patients must be maintained on current concomitant psychotropic medications, anticholinergics, antiepileptics and/or lithium for at least 3 months prior to randomization and on current dose for at least 4 weeks prior to randomization.
Patients eligible for the trial were randomly assigned, in a 1:1:1:1:2 ratio to either • 2 mg compound I • 5 mg compound I • 10 mg compound I • 25 mg compound I • Placebo
An MCPMod approach combined with MMRM was used to establish the proof of concept in this trial.
The null hypothesis was that there was a flat dose-response pattern across placebo and any dose of compound I within the tested dose range on the mean change in the MCCB overall composite score from baseline to Week 12. The alternative hypothesis was that there was a non-flat dose-response pattern indicating a benefit of compound I versus placebo.
Patients in the FAS were analysed according to the ITT principle, i.e. according to their randomised trial medication. The FAS was used for analyses of efficacy.
The primary endpoint of this trial was the change from baseline in cognitive function as measured by the MCCB overall composite score after 12 weeks of treatment. The primary efficacy analysis was based on the full analysis set (FAS).
Model includes fixed, categorical factors of planned treatment, analysis visit, and planned treatment by analysis visit interaction, as well as the continuous fixed covariate of baseline value and baseline value by analysis visit interaction. Subject is treated as random effect. Unstructured covariance structure was used to fit the mixed model. Kenward-Roger was used to model degrees of freedom.

[3] = tested on: patients with schizophrenia; experiment: Phase II CIAS trial: safety (AEs, laboratory tests, PANSS, C-SSRS)
Protocol: This was a 12-week, multi-centre, multi-national, randomised, double-blind, double-dummy, placebo-controlled, parallel-group trial in patients with clinically stable schizophrenia.
as §1
Safety was assessed based on the frequency of AEs, recording of vital signs, ECG measurements, standard laboratory tests, physical examination, neurological examination, as well as PANSS and C-SSRS questionnaires.

C[C@@H](Oc1ccc(S(C)(=O)=O)cc1C(=O)N1C[C@@H]2C[C@]2(c2cc(C(F)(F)F)on2)C1)C(F)(F)F [compound I, [5-(methylsulfonyl)-2-{[(2R)-1,1,1-trifluoropropan-2-yl]oxy}phenyl] {(1R,5R)-1-[5-(trifluoromethyl)-1,2-oxazol-3-yl]-3-azabicyclo[3.1.0]hex-3-yl}methanone]
Decrease of haemoglobin levels, maximum effect [1]: 5.7% | Effect on cognition (dose considerations, Phase II trial) ([2]; 2 mg): ineffective | Change from baseline in MCCB overall composite score at Week 12, adjusted mean ([2]; 2 mg once daily oral): 1.784 | Change from baseline in MCCB overall composite score at Week 12, comparison vs. placebo, adjusted mean ([2]; 2 mg once daily): 0.280 | Effect on cognition (dose considerations, Phase II trial) ([2]; 5 mg): numerically improved cognition in Asian subpopulation | Change from baseline in MCCB overall composite score at Week 12, adjusted mean ([2]; 5 mg once daily oral): 1.641 | Change from baseline in MCCB overall composite score at Week 12, comparison vs. placebo, adjusted mean ([2]; 5 mg once daily): 0.137 | Effect on cognition (dose considerations, Phase II trial), primary endpoint ([2]; 10 mg): separated best from placebo | Change from baseline in MCCB neurocognitive composite score at Week 12 ([2]; 10 mg and 25 mg treatment groups compared with placebo): A larger change from baseline was observed | Change from baseline in MCCB overall composite score at Week 12, adjusted mean ([2]; 10 mg once daily oral): 3.486 | Change from baseline in MCCB overall composite score at Week 12, comparison vs. placebo, adjusted mean ([2]; 10 mg once daily): 1.982 | Effect on cognition (dose considerations, Phase II trial) ([2]; 25 mg): efficacy less consistent across analyses than the 10 mg dose | Change from baseline in MCCB overall composite score at Week 12, adjusted mean ([2]; 25 mg once daily oral): 3.234 | Change from baseline in MCCB overall composite score at Week 12, comparison vs. placebo, adjusted mean ([2]; 25 mg once daily): 1.730 | Cognitive performance compared to placebo, phase 2 clinical trial ([2]; certain doses, patients having schizophrenia): improves cognitive performance | Dose-response for change from baseline at Week 12 in MCCB overall composite T-score ([2]; doses of 2 to 25 mg): non-flat dose-response curve | Proportion of responders, change from baseline in MCCB overall composite score at Week 12 ([2]; responder ≥3, 2 mg): 46.3% | Responders, comparison vs. placebo, odds ratio ([2]; responder ≥3, 2 mg): 1.184 | Proportion of responders, change from baseline in MCCB overall composite score at Week 12 ([2]; responder ≥3, 5 mg): 42.3% | Responders, comparison vs. placebo, odds ratio ([2]; responder ≥3, 5 mg): 1.006 | Proportion of responders, change from baseline in MCCB overall composite score at Week 12 ([2]; responder ≥3, 10 mg): 61.5% | Responders, comparison vs. placebo, odds ratio ([2]; responder ≥3, 10 mg): 2.200 | Proportion of responders, change from baseline in MCCB overall composite score at Week 12 ([2]; responder ≥3, 25 mg): 47.4% | Responders, comparison vs. placebo, odds ratio ([2]; responder ≥3, 25 mg): 1.241 | Proportion of responders, change from baseline in MCCB overall composite score at Week 12 ([2]; responder ≥4, 2 mg): 40.3% | Responders, comparison vs. placebo, odds ratio ([2]; responder ≥4, 2 mg): 1.298 | Proportion of responders, change from baseline in MCCB overall composite score at Week 12 ([2]; responder ≥4, 5 mg): 38.0% | Responders, comparison vs. placebo, odds ratio ([2]; responder ≥4, 5 mg): 1.180 | Proportion of responders, change from baseline in MCCB overall composite score at Week 12 ([2]; responder ≥4, 10 mg): 52.6% | Responders, comparison vs. placebo, odds ratio ([2]; responder ≥4, 10 mg): 2.131 | Proportion of responders, change from baseline in MCCB overall composite score at Week 12 ([2]; responder ≥4, 25 mg): 41.0% | Responders, comparison vs. placebo, odds ratio ([2]; responder ≥4, 25 mg): 1.338 | Proportion of responders, change from baseline in MCCB overall composite score at Week 12 ([2]; responder ≥5, 2 mg): 35.8% | Responders, comparison vs. placebo, odds ratio ([2]; responder ≥5, 2 mg): 1.370 | Proportion of responders, change from baseline in MCCB overall composite score at Week 12 ([2]; responder ≥5, 5 mg): 32.4% | Responders, comparison vs. placebo, odds ratio ([2]; responder ≥5, 5 mg): 1.176 | Proportion of responders, change from baseline in MCCB overall composite score at Week 12 ([2]; responder ≥5, 10 mg): 44.9% | Responders, comparison vs. placebo, odds ratio ([2]; responder ≥5, 10 mg): 1.998 | Proportion of responders, change from baseline in MCCB overall composite score at Week 12 ([2]; responder ≥5, 25 mg): 39.7% | Responders, comparison vs. placebo, odds ratio ([2]; responder ≥5, 25 mg): 1.619 | Haemoglobin, mean change from baseline at last on-treatment value ([3]; 2 mg): -0.2 g/L | Haemoglobin, relative change from baseline ([3]; 2 mg): −0.1% | Haemoglobin, mean change from baseline at last on-treatment value ([3]; 5 mg): -0.7 g/L | Haemoglobin, relative change from baseline ([3]; 5 mg): −0.5% | Haemoglobin, mean change from baseline at last on-treatment value ([3]; 10 mg): 3.3 g/L | Haemoglobin, relative change from baseline ([3]; 10 mg): −2.3% | Haemoglobin, mean change from baseline at last on-treatment value ([3]; 25 mg): 4.5 g/L | Haemoglobin, relative change from baseline ([3]; 25 mg): −3.2% | Headache (most frequently observed AE) ([3]; all dose groups vs placebo): reported more frequently in all dose groups of compound I than placebo | Deaths ([3]; all treatment groups, 12 weeks): no deaths | Patients reporting on-treatment AEs ([3]; any treatment arm): Approximately 50% | Suicidal ideation and behaviour assessed using C-SSRS ([3]; compound I vs placebo): No significant differences | Worsening of schizophrenia assessed by PANSS total score ([3]; in vivo): no worsening of schizophrenia
